Reference: patent US6403554B2, “Polyunsaturated fatty acid derivatives and their use” (Ardenia Investments Ltd., priority 1998, dated 2002)

Experiments:
[1] = tested on: antibody-forming cells (AFC) in the spleen; assay: Influence of compound on humoral immune response to sheep erythrocytes, C57B1/6 female mice (AFC in spleen, hemagglutinins); type: in vivo; conditions: for Amount of antibody-forming cells per 10^6 spleen cells / Amount of antibody-forming cells per spleen / Effect on relative amount of AFC (per 10^6 spleen cells) / Effect on total AFC amount (per spleen): 5th day; for Amount of antibody-forming cells per 10^6 spleen cells / Amount of antibody-forming cells per spleen: M ± SEM; for Effect on relative amount of AFC (per 10^6 spleen cells) / Effect on total AFC amount (per spleen) / Effect on hemagglutinin titers: vs control; for Spleen index: with SRBC i.p.
[2] = tested on: antibody-forming cells (AFC) in the spleen; assay: Influence of human AFP/compound complex and compound alone on humoral immune response, C57B1/6 male mice; type: in vivo; conditions: compound alone, 5th day
Experimental: (§1) The influence of complexes of AFP with one of the title compounds 1-4, 1a-4a, 5-20 as well as their basic components on humoral immune response was estimated by counting the quantity of antibody-forming cells (AFC) in the mice spleen.
0.15 ml of AFP/Compound 3 complex was administered intravenously to 6 mice males of C57B1/6 line (weight 18-22 g) in the dose of […] of AFP and 45.5 μg of compound 3 per capita. Simultaneously suspension of 5·10^7 sheep erythrocytes was injected intraperitoneally (0.2 ml per capita). In the group with compound 3 mice were injected intravenously by one in the dose of 45.5 μg. Animals of group with AFP received 9 μg of AFP. Mice of control group were injected intravenously with equal volume of saline. Complex AFP/Compound 3 effect on humoral immune response was analyzed by counting the quantity of AFC in the spleen according to Cunningham (per 10^6 spleen cells and per spleen).
(§2) 0.15 ml of AFP/Compound 2a complex (1:100) was administered intravenously to 6 mice males of C57B1/6 line (weight 18-22 g) in the dose of 9 μg of AFP and 45.5 μg of compound 2a per capita. Simultaneously, a suspension of 5·10^7 sheep erythrocytes was injected intraperitoneally (0.2 ml per capita). In the group with compound 2a mice were injected intravenously by one in the dose of 45.5 μg. Animals of group with AFP received 9 μg of AFP. Mice in the control group were injected intravenously with an equal volume of saline. The effect of the AFP/Compound 2a complex on humoral immune response was analyzed by counting the quantity of AFC in the spleen according to Cunningham (per 10^6 spleen cells and per spleen).
(§3) 0.15 ml of AFP/Compound 10 complex (1:200) was administered intravenously to 6 male mice of C57B1/6 line (weight 18-22 g) in the dose of 9 μg of AFP and 91 μg of compound 10 per capita. Simultaneously, a suspension of 5·10^7 sheep erythrocytes was injected intraperitoneally (0.2 ml per capita). In the group receiving compound 10 mice were injected intravenously by one in the dose of 91 μg. Animals in the group with AFP received 9 μg of AFP. Micein the control group were injected intravenously with an equal volume of saline. The effect of the AFP/Compound 10 complex on humoral immune response was analyzed by counting the quantity of AFC in the spleen according to Cunningham (per 10^6 spleen cells and per spleen).
as §3, with “AFP/Compound 14” for “AFP/Compound 10”, “compound 14” for “compound 10”, “group with” for “group receiving”, “Animals of” for “Animals in the”, “AFP. Mice in” for “AFP. Micein”

[3] = tested on: antibody-forming cells (AFC) in the spleen; assay: Influence of rat AFP/compound complex and compound alone on humoral immune response, C57B1/6 male mice; type: in vivo; conditions: compound alone, 5th day
Experimental: as §1
0.15 ml of AFP/Compound 7 complex (1:200) was administered intravenously to 6 male mice of C57B1/6 line (weight 18-22 g) in the dose of 9 μg of AFP and 91 μg of compound 7 per capita. Simultaneously, a suspension of 5·10^7 sheep erythrocytes was injected intraperitoneally (0.2 ml per capita). In the group with compound 7 mice were injected intravenously by one in the dose of 91 μg. Animals of group with AFP received 9 μg of AFP. Mice of control group were injected intravenously with equal volume of saline. AFP/Compound 7 complex effect on humoral immune response was analyzed by counting the quantity of AFC in the spleen according to Cunningham (per 10^6 spleen cells and per spleen).
0.15 ml of AFP/Compound 15 complex (1:200) was administered intravenously to 6 mice males of C57B1/6 line (weight 18-22 g) in the dose of 9 μg of AFP and 91 μg of compound 15 per capita. Simultaneously, a suspension of 5·10^7 sheep erythrocytes was injected intraperitoneally (0.2 ml per capita). In the group receiving compound 15, the mice were injected intravenously by one in the dose of 91 μg. Animals in the AFP-group received 9 μg of AFP. Mice in the control group were injected intravenously with an equal volume of saline. The effect of the AFP/Compound 15 complex on humoral immune response was analyzed by counting the quantity of AFC in the spleen according to Cunningham (per 10^6 spleen cells and per spleen).
as §2, with “1” for “2a”, “complex” for “complex (1:100)”, “Complex AFP/Compound 1” for “The”, “effect” for “effect of the AFP/Compound 2a complex”

[4] = tested on: endothelial cells; conditions: cited from earlier work
[5] = biological target: T1, human AFP (Homo sapiens, UniProt P02771); assay: AFP binding: competitive substitution of [3H]arachidonic acid from the protein's binding site
T1 construct: from tissue; host or cells: human cord blood
T1 sequence (P02771 19-609): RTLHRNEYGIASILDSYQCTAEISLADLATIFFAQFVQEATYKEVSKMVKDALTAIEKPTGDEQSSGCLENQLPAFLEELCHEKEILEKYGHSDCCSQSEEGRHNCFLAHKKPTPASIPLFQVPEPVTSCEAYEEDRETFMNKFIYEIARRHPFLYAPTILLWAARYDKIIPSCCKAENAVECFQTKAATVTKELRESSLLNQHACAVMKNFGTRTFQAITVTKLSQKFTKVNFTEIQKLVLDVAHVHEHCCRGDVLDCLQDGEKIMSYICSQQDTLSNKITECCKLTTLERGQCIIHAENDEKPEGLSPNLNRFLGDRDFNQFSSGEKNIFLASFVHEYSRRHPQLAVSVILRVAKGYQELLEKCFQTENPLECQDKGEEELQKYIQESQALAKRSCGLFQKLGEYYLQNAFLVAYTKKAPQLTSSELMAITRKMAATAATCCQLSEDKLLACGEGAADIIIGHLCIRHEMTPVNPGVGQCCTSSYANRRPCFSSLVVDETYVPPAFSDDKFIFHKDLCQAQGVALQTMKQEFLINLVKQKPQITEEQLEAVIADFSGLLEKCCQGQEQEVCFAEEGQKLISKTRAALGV
Experimental: To tubes containing […] AFP in 1 ml 0.1 M bicarbonate buffer and 0.7 pmol [^3H]arachidonic acid and increasing amounts (5-5000 pmol) of arachidonic acid or any one of the title compounds 1-4, 1a-4a, and 5-20 were added. The tubes were incubated for 2 hr at room temperature. To separate protein-bound and free fractions of [^3H] arachidonic acid, tubes were incubated at 4° C. for 15 min with dextran covered activated carbon (0.5% suspension). The carbon was sedimented by centrifugation at 3000×g, aliquotes were added to 10 ml scintillating mixture and the vials were measured in a beta-counter.
The binding parameters of arachidonic acid and the compounds (1-4, 1a-4a, 5-16) the number of binding sites per protein molecule were calculated according to Scatchard (Scatchard O., Ann.N.Y.Acad.Sci. 51., p 660-664, 1949), and Blondeau (Blondeau J.-P., et al., Steroids, V. 32, N 5, P. 563-575, 1978).

Compound	Amount of antibody-forming cells per 10^6 spleen cells ([1]; 45.5 μg/mouse, i.v.)	Amount of antibody-forming cells per spleen ([1]; 45.5 μg/mouse, i.v.)	Effect on relative amount of AFC (per 10^6 spleen cells) ([1]; 45.5 μg/mouse, i.v.)	Effect on total AFC amount (per spleen) ([1]; 45.5 μg/mouse, i.v.)	Effect on hemagglutinin titers ([1]; 45.5 μg/mouse, i.v.)	Spleen index ([1]; 45.5 μg/mouse, i.v.)	Amount of antibody-forming cells per 10^6 spleen cells ([1]; 91 μg/mouse, i.v.)	Amount of antibody-forming cells per spleen ([1]; 91 μg/mouse, i.v.)	Effect on hemagglutinin titers ([1]; 91 μg/mouse, i.v.)	Spleen index ([1]; 91 μg/mouse, i.v.)	Amount of antibody-forming cells per 10^6 spleen cells ([1]; 136.5 μg/mouse, i.v.)	Amount of antibody-forming cells per spleen ([1]; 136.5 μg/mouse, i.v.)	Spleen index ([1]; 136.5 μg/mouse, i.v.)	other results
CC1=C(/C=C/C(C)=C/C=C/C(C)=C\C(=O)N[C@@H](COP(=O)(O)O)C(=O)O)C(C)(C)CCC1 (stereo in doubt) [Compound 2a, N-(13-cis-Retinoyl)-O-phospho-L-serine]	264.5±19.9 cells per 10^6 spleen cells	34.0±2.6 × 10^3	−12.8 p > 0.05%	−15.0 p > 0.05%	−7.7 p > 0.05%	6.4 ± 0.2 10^−3	585.6±51.6 cells per 10^6 spleen cells	59.4±5.2 × 10^3	−3.8 p > 0.05%	6.5 ± 0.2 10^−3	639.8±54.6 cells per 10^6 spleen cells	68.3±6.1 × 10^3	7.4 ± 0.4 10^−3	Immunogenic activity ([1]; 45.5 μg/mouse): no immunogenic activity; immunostimulating effect in vivo in micelle form ([1]; 91 μg/mouse): display immunostimulating effect in vivo; Effect on hemagglutinin titers ([1]; 136.5 μg/mouse, i.v.): +5.1 p > 0.05%; immunostimulating action ([1]; 91 and 136.5 μg/mouse): marked immunostimulating action; relative amount of AFC ([2]; 45.5 μg/mouse i.v.): 264.5±19.9 cells per 10^6 spleen cells; total AFC amount ([2]; 45.5 μg/mouse i.v.): 34.0±2.6 × 10^3
CC1=C(/C=C/C(C)=C/C=C/C(C)=C/C(=O)NCCOP(=O)(O)O)C(C)(C)CCC1 [Compound 1, N-(all-trans-Retinoyl)-O-phospho-2-aminoethanol]														relative amount of AFC ([3]; 45.5 μg/mouse i.v.): 413.1±31.5 cells per 10^6 spleen cells; total AFC amount ([3]; 45.5 μg/mouse i.v.): 38.4±3.7 × 10^3
CCCCC/C=C\C/C=C\C/C=C\C/C=C\CCCC(=O)N[C@H](C(=O)O)[C@@H](C)OP(=O)(O)O [Compound 7, N-(cis-5,8,11,14-eicosatetraenoyl)-O-phospho-L-threonine]														relative amount of AFC ([3]; 91 μg/mouse i.v.): 574.9±39.6 cells per 10^6 spleen cells; total AFC amount ([3]; 91 μg/mouse i.v.): 60.4±5.4 × 10^3
CC/C=C\C/C=C\C/C=C\C/C=C\C/C=C\C/C=C\CCC(=O)N[C@@H](COP(=O)(O)O)C(=O)O [Compound 10, N-(cis-4,7,10,13,16,19-docosahexaenoyl)-O-phospho-L-serine]	304.9±46.6 cells per 10^6 spleen cells	30.2±5.7 × 10^3	+11.6 p > 0.05%	−3.5 p > 0.05%	+11.4 p > 005%	6.9 ± 0.2 10^−3	326.2±65.4 cells per 10^6 spleen cells	34.7±8.5 × 10^3	+11.4 p > 005%	6.6 ± 0.4 10^−3	651.6±48.2 cells per 10^6 spleen cells	81.1±5.8 × 10^3	6.7 ± 0.2 10^−3	Effect on relative amount of AFC (per 10^6 spleen cells) ([1]; 91 μg/mouse, i.v.): +19.4 p > 0.05%; Effect on total AFC amount (per spleen) ([1]; 91 μg/mouse, i.v.): +10.9 p > 0.05%; Amount of hemagglutinins ([1]; 136.5 μg/mouse, i.v., serum): 8.5±0.4 Log2 T; Immunogenic activity ([1]; 45.5 and 91 μg/mouse): no immunogenic activity; relative amount of AFC ([2]; 91 μg/mouse i.v.): 326.2±65.4 cells per 10^6 spleen cells; total AFC amount ([2]; 91 μg/mouse i.v.): 34.7±8.5 × 10^3
CC/C=C\C/C=C\C/C=C\C/C=C\C/C=C\CCCC(=O)N[C@@H](COP(=O)(O)O)C(=O)O [Compound 14, N-(cis-5,8,11,14,17-eicosapentaenoyl)-O-phospho-L-serine]	554.6±52.0 cells per 10^6 spleen cells	70.8±10.8 × 10^3	−10.9 p > 0.05%	−1.5 p > 0.05%	−9,7 p > 0.05%	6.5 ± 0.2 10^−3	645.8±64.4 cells per 10^6 spleen cells	80.8±12.7 × 10^3	−2,8 p > 0.05%	6.2 ± 0.2 10^−3	946.1±41.9 cells per 10^6 spleen cells	108.6±10.8 × 10^3	6.5 ± 0.3 10^−3	Effect on relative amount of AFC (per 10^6 spleen cells) ([1]; 91 μg/mouse, i.v.): +3.8 p > 0.05%; Effect on total AFC amount (per spleen) ([1]; 91 μg/mouse, i.v.): +12.4 p > 0.05%; immunostimulating action ([1]; 136.5 μg/mouse): marked immunostimulating action; Effect on hemagglutinin titers ([1]; 136.5 μg/mouse, i.v.): 0%; Immunogenic activity ([1]; 45.5 and 91 μg/mouse): no immunogenic activity; relative amount of AFC ([2]; 91 μg/mouse i.v.): 645.8±64.4 cells per 10^6 spleen cells; total AFC amount ([2]; 91 μg/mouse i.v.): 80.8±12.7 × 10^3
CC/C=C\C/C=C\C/C=C\C/C=C\C/C=C\CCCC(=O)N[C@H](C(=O)O)[C@@H](C)OP(=O)(O)O [Compound 15, N-(cis-5,8,11,14,17-eicosapentaenoyl)-O-phospho-L-threonine]														relative amount of AFC ([3]; 91 μg/mouse i.v.): 594.7±41.4 cells per 10^6 spleen cells; total AFC amount ([3]; 91 μg/mouse i.v.): 70.8±8.2 × 10^3
CCCCCCCC/C=C\CCCCCCCCCCCC(N)=O [Erucamide, 13-docosenamide]														inflammatory effects [4]: does not promote proliferation of endothelial cells or induce inflammatory effects; proliferation of endothelial cells [4]: does not promote proliferation of endothelial cells
CCCCC/C=C\C/C=C\C/C=C\C/C=C\CCCC(=O)O [arachidonic acid]														Kd [5]: 16.7 nM; n (number of binding sites per protein molecule) ([5]; three independent determinations, Scatchard): > 1.2
